Laboratory results taken from ChEMBL document CHEMBL4342519, “Triazolo-Peptidomimetics: Novel Radiolabeled Minigastrin Analogs for Improved Tumor Targeting” (J Med Chem, 2020).
Active and inactive are the calls of the source. The rule behind the calls is not given here. *1 amine or outer side, *2 acyl side, *3 side chain or, on linkers, in order; H or OH if unused. Where a SMILES comes first, the peptide text is derived from it. [ ]: non-standard residue; d: D form. The star is where a group is joined. X2 = CCCC[C@@H](C(=O)[*:2])n1cc([C@H](Cc2c[nH]c3ccccc23)N[*:1])nn1; X4 = C[C@H](N[*:1])c1cn([C@@H](Cc2ccc(O)cc2)C(=O)[*:2])nn1; DOTA = O=C(O)CN1CCN(CC(=O)O)CCN(CC(=O)*)CCN(CC(=O)O)CC1; X3 = O=C([C@H](Cc1c[nH]c2ccccc12)n1cc(CN[*:1])nn1)[*:2]; X5 = C[C@@H](C(=O)[*:2])n1cc([C@@H](CCC(=O)O)N[*:1])nn1; X1 = O=C(Cn1cc([C@H](Cc2ccc(O)cc2)N[*:1])nn1)[*:2]; Nle = CCCC[C@H](N)C(=O)O

Key:
[1] = Drug uptake in tumor of CD1 nu/nu mouse xenografted with human A431 cells transfected with CCK2R at 0.5 MBq after 4 hrs using 177Lu labeled compound by Cobra-2 gamma counter method relative to control; type: ADME, tissue-based, Neoplasm
[2] = Stability of compound in human plasma at 7.5 MBq assessed as intact compound measured after 24 hrs using 177Lu labeled compound by gamma-HPLC analysis; type: ADME, cell-free; details: for remaining at 24 h, 7.5 MBq: read-out: Stability; for Stability: 24 h
[3] = Lipophilicity, log D of compound in PBS buffer at 0.25 MBq and pH 7.4 using 177Lu labeled compound by shake-flask method; type: physicochemical
[4] = biological target: T1, Gastrin/cholecystokinin type B receptor (Homo sapiens) (UniProt P32239); test: Binding affinity to CCK2R (unknown origin) expressed in human A431 cells assessed as receptor-mediated drug internalization at 5 kBq incubated up to 240 mins using 177Lu labeled compound by gamma counting method relative to control; type: cell-based
T1 sequence (whole entry): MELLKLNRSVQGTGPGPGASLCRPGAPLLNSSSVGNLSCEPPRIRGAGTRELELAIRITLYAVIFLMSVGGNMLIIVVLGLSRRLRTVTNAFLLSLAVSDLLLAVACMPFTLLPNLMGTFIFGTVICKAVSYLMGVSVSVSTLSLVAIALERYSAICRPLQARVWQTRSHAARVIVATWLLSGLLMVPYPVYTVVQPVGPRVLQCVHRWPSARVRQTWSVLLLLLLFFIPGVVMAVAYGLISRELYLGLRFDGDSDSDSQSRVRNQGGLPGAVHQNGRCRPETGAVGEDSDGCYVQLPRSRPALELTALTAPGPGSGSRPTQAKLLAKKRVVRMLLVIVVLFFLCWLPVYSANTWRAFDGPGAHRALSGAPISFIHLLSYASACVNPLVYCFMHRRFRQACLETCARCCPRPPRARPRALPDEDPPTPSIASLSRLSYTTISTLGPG

[5] = biological target: T2, Gastrin/cholecystokinin type B receptor (Homo sapiens, UniProt P32239); test: Displacement of [177Lu] PP-F11N from CCK2R (unknown origin) transfected in A431 cells incubated for 1 hr at 4 degree C followed by compound washout with PBS buffer using Lu3+ labeled compound by Cobra-2 gamma counter method; type: cell-based
T2 sequence (P32239 whole entry): T1 sequence (whole entry)

[6] = Half life in human plasma at 7.5 MBq measured up to 24 hrs at 37 degree C using 177Lu labeled compound by gamma-HPLC analysis; type: ADME, cell-free
[7] = biological target: T1, Gastrin/cholecystokinin type B receptor (Homo sapiens); test: Potency index, ratio of [Nle15]MG11 IC50 to test compound IC50 for displacement of [177Lu] PP-F11N from CCK2R (unknown origin) transfected in A431 cells incubated for 1 hr at 4 degree C followed by compound washout with PBS buffer using Lu3+ labeled compound by Cobra-2 gamma counter method; type: cell-based
[8] = biological target: T1, Gastrin/cholecystokinin type B receptor (Homo sapiens); test: Binding affinity to CCK2R (unknown origin) expressed in human A431 cells assessed as receptor-mediated drug internalization at 5 kBq incubated 4 hrs using 177Lu labeled compound by gamma counting method relative to control; type: cell-based
[9] = Drug uptake in tumor of CD1 nu/nu mouse xenografted with human A431 cells transfected with CCK2R at 0.5 MBq after 24 hrs using 177Lu labeled compound by Cobra-2 gamma counter method relative to control; type: ADME, tissue-based, Neoplasm
[10] = Drug recovery in tumor of CD1 nu/nu mouse xenografted with human A431 cells transfected with CCK2R at 0.5 MBq after 24 hrs using 177Lu labeled compound by Cobra-2 gamma counter method relative to control; type: ADME, tissue-based, Neoplasm
[11] = Drug uptake in tumor of CD1 nu/nu mouse xenografted with human A431 cells transfected with CCK2R at 0.5 MBq after 1 hr using 177Lu labeled compound by Cobra-2 gamma counter method; type: ADME, tissue-based, Neoplasm
[12] = Ratio of drug uptake in tumor to kidney in CD1 nu/nu mouse xenografted with human A431 cells transfected with CCK2R at 0.5 MBq after 4 hrs using 177Lu labeled compound by Cobra-2 gamma counter method; type: ADME, tissue-based
[13] = Ratio of half life of compound to [Nle15]MG11 in human plasma at 7.5 MBq measured up to 24 hrs at 37 degree C using 177Lu labeled compound by gamma-HPLC analysis; type: ADME, cell-free
[14] = Drug uptake in tumor of CD1 nu/nu mouse xenografted with human A431 cells transfected with CCK2R at 0.5 MBq, iv after 4 hrs using 177Lu labeled compound by Cobra-2 gamma counter method relative to [Nle15]MG11; type: ADME, organism-based, Neoplasm; details: in vivo
[15] = biological target: T1, Gastrin/cholecystokinin type B receptor (Homo sapiens); test: Binding affinity to CCK2R (unknown origin) expressed in human A431 cells assessed as receptor-mediated drug internalization at 5 kBq incubated 2 to 4 hrs using 177Lu labeled compound by gamma counting method relative to control; type: cell-based

Drug uptake [1] | remaining at 24 h, 7.5 MBq [2] [%] | logD ([3]; PBS buffer, read-out: logD) | Drug uptake [4] [%] | IC50 [5] [nM] | half-life at 7.5 MBq [6] [h] | Ratio IC50 [7] | Drug uptake [8] | Drug uptake [9] | Drug recovery [10] [%] | Drug uptake [11] | Ratio [12] | Ratio [13] | Stability [2] | logD ([3]; buffer) | Ratio [14] | fold change (FC) [15] | Structure (SMILES)
Active | > 50 | -3.75 | 0.2 | > 50000 | 114 |  |  |  |  |  |  |  |  |  |  |  | CCCC[C@H](NC(=O)[C@H](Cc1c[nH]c2ccccc12)NC(=O)CNC(=O)[C@H](Cc1ccc(O)cc1)NC(=O)[C@H](C)NC(=O)[C@@H](CCC(=O)O)NC(=O)CN1CCN(CC(=O)O)CCN(CC(=O)O)CCN(CC(=O)O)CC1)c1cn([C@@H](CC(=O)O)C(=O)N[C@@H](Cc2ccccc2)C(N)=O)nn1
 |  | -3.83 | 37.4 | 25.8 | 4.7 |  |  |  |  |  |  |  |  |  |  |  | CCCC[C@H](NC(=O)[C@H](Cc1c[nH]c2ccccc12)NC(=O)CNC(=O)C[C@H](Cc1ccc(O)cc1)NC(=O)[C@H](C)NC(=O)[C@@H](CCC(=O)O)NC(=O)CN1CCN(CC(=O)O)CCN(CC(=O)O)CCN(CC(=O)O)CC1)C(=O)N[C@@H](CC(=O)O)C(=O)N[C@@H](Cc1ccccc1)C(N)=O
 | > 50 | -3.69 | 2.5 | 200 | 34.9 |  |  |  |  |  |  |  |  |  |  |  | CCCC[C@H](NC(=O)[C@H](Cc1c[nH]c2ccccc12)NC(=O)CNC(=O)[C@H](Cc1ccc(O)cc1)NC(=O)[C@H](C)NC(=O)[C@@H](CCC(=O)O)NC(=O)CN1CCN(CC(=O)O)CCN(CC(=O)O)CCN(CC(=O)O)CC1)C(=O)N[C@@H](CC(=O)O)C(=O)N[C@@H](Cc1ccccc1)c1c[nH]nn1
 |  | -3.73 | 44.5 | 18.8 | 8.5 |  |  |  |  |  |  |  |  |  |  |  | CCCC[C@H](NC(=O)[C@H](Cc1c[nH]c2ccccc12)NC(=O)CCNC(=O)[C@H](Cc1ccc(O)cc1)NC(=O)[C@H](C)NC(=O)[C@@H](CCC(=O)O)NC(=O)CN1CCN(CC(=O)O)CCN(CC(=O)O)CCN(CC(=O)O)CC1)C(=O)N[C@@H](CC(=O)O)C(=O)N[C@@H](Cc1ccccc1)C(N)=O
 | > 50 | -3.95 | 0.1 | > 50000 | 35.9 |  |  |  |  |  |  |  |  |  |  |  | CCCC[C@H](NC(=O)[C@H](Cc1c[nH]c2ccccc12)NC(=O)CNC(=O)[C@H](Cc1ccc(O)cc1)NC(=O)[C@H](C)NC(=O)[C@@H](CCC(=O)O)NC(=O)CN1CCN(CC(=O)O)CCN(CC(=O)O)CCN(CC(=O)O)CC1)C(=O)N[C@@H](CC(=O)O)c1cn([C@@H](Cc2ccccc2)C(N)=O)nn1
Active |  | -3.98 | 39.6 | 8 | 7.7 | 2 | Active |  |  |  |  |  |  |  |  |  | CCCC[C@H](NC(=O)[C@H](Cc1c[nH]c2ccccc12)NC(=O)CNC(=O)[C@H](Cc1ccc(O)cc1)NC(=O)[C@H](C)n1cc([C@@H](CCC(=O)O)NC(=O)CN2CCN(CC(=O)O)CCN(CC(=O)O)CCN(CC(=O)O)CC2)nn1)C(=O)N[C@@H](CC(=O)O)C(=O)N[C@@H](Cc1ccccc1)C(N)=O ({DOTA}-[X5]YGW[Nle]DF-NH2)
1.48 % ID/g |  | -3.86 | 32.2 | 15.4 | 3.9 |  | 11.7% | < 0.9 % ID/g | 34 | Active | 1.83 |  |  |  |  |  | CCCC[C@H](NC(=O)[C@H](Cc1c[nH]c2ccccc12)NC(=O)CNC(=O)[C@H](Cc1ccc(O)cc1)NC(=O)[C@H](C)NC(=O)[C@@H](CCC(=O)O)NC(=O)CN1CCN(CC(=O)O)CCN(CC(=O)O)CCN(CC(=O)O)CC1)C(=O)N[C@@H](CC(=O)O)C(=O)N[C@@H](Cc1ccccc1)C(N)=O ({DOTA}-[dE]AYGW[Nle]DF-NH2)
Active | > 50 | -3.98 | 33.1 | 25.4 | 350 |  | Active |  |  |  |  | 90 |  |  |  |  | CCCC[C@@H](C(=O)N[C@@H](CC(=O)O)C(=O)N[C@@H](Cc1ccccc1)C(N)=O)n1cc([C@H](Cc2c[nH]c3ccccc23)NC(=O)CNC(=O)[C@H](Cc2ccc(O)cc2)NC(=O)[C@H](C)NC(=O)[C@@H](CCC(=O)O)NC(=O)CN2CCN(CC(=O)O)CCN(CC(=O)O)CCN(CC(=O)O)CC2)nn1 ({DOTA}-[dE]AYG[X2]DF-NH2)
Active |  | -4 | 41.7 | 15.6 | 3.8 |  | Active |  |  |  |  |  | Unstable |  |  |  | CCCC[C@H](NC(=O)[C@H](Cc1c[nH]c2ccccc12)n1cc(CNC(=O)[C@H](Cc2ccc(O)cc2)NC(=O)[C@H](C)NC(=O)[C@@H](CCC(=O)O)NC(=O)CN2CCN(CC(=O)O)CCN(CC(=O)O)CCN(CC(=O)O)CC2)nn1)C(=O)N[C@@H](CC(=O)O)C(=O)N[C@@H](Cc1ccccc1)C(N)=O ({DOTA}-[dE]AY[X3][Nle]DF-NH2)
3.91 % ID/g |  |  | 54.3 | 1.7 | 2.6 | 10 | 31% | Active | 75 | Active | 5.81 |  | Unstable | -4.06 | 2.6 | 2 | CCCC[C@H](NC(=O)[C@H](Cc1c[nH]c2ccccc12)NC(=O)Cn1cc([C@H](Cc2ccc(O)cc2)NC(=O)[C@H](C)NC(=O)[C@@H](CCC(=O)O)NC(=O)CN2CCN(CC(=O)O)CCN(CC(=O)O)CCN(CC(=O)O)CC2)nn1)C(=O)N[C@@H](CC(=O)O)C(=O)N[C@@H](Cc1ccccc1)C(N)=O ({DOTA}-[dE]A[X1]W[Nle]DF-NH2)
Active | > 50 | -3.9 | 29.6 | 20.9 | 51.4 |  | Active |  |  |  |  |  |  |  |  |  | CCCC[C@H](NC(=O)[C@H](Cc1c[nH]c2ccccc12)NC(=O)CNC(=O)[C@H](Cc1ccc(O)cc1)n1cc([C@H](C)NC(=O)[C@@H](CCC(=O)O)NC(=O)CN2CCN(CC(=O)O)CCN(CC(=O)O)CCN(CC(=O)O)CC2)nn1)C(=O)N[C@@H](CC(=O)O)C(=O)N[C@@H](Cc1ccccc1)C(N)=O ({DOTA}-[dE][X4]GW[Nle]DF-NH2)
